Reference: patent US9834534B2, “Neuraminidase inhibitor compounds, compositions and methods for the use thereof in anti-viral treatments” (THE UNIVERSITY OF BRITISH COLUMBIA, priority 2009, dated 2017)
Where “and” joins values, the source holds several entries; their conditions need not be identical. Equal values may be shown once. Read-outs that look alike come from different tables or passages of the source.

Key:
[1] = system: B/Florida wt (B/Florida/4/2006); assay: microbe, parasite or virus in culture; assay type: cell-based; details: Influenza B virus, read-out: IC50 B/Florida wt
[2] = system: Auckland pH1N1 wt (A/Auckland/3/2009); assay: microbe, parasite or virus in culture; assay type: cell-based; details: Influenza A virus, read-out: IC50 Auckland pH1N1 wt
Fukui H3N2 wt = assay: microbe, parasite or virus in culture; assay type: cell-based; details: Influenza A virus, H3N2, read-out: IC50 Fukui H3N2 wt
sH1N1/01 wt = assay: microbe, parasite or virus in culture; assay type: cell-based; details: Influenza A virus, read-out: IC50 sH1N1/01 wt
sH1N1/08 wt = assay: microbe, parasite or virus in culture; assay type: cell-based; details: Influenza A virus, read-out: IC50 sH1N1/08 wt
B/Perth wt = assay: microbe, parasite or virus in culture; assay type: cell-based; details: Influenza B virus, read-out: sensitivity to inhibitors, B/Perth wt
H1N1 OsR = H1N1 OsR (Influenza A virus (H1N1), UniProt Q289M4); details: for ki: pH 7.6
Sequence of H1N1 OsR (Q289M4 whole entry, looked up): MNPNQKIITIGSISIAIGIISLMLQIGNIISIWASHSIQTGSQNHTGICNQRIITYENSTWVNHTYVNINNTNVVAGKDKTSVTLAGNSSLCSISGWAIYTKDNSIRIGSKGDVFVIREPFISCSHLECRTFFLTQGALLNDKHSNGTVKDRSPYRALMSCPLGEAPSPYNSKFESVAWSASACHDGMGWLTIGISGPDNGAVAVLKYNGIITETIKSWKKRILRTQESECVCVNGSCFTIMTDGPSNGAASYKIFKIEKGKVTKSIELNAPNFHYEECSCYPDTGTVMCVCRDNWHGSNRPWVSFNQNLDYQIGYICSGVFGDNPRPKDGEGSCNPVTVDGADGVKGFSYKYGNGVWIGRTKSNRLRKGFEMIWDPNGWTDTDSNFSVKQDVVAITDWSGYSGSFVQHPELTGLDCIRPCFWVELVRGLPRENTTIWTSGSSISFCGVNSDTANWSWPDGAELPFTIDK

[3] = molecular target: influenza sialidase (subtype N9) (Influenza A virus, UniProt P03472); assay: biochemical; assay type: biochemical
Sequence of influenza sialidase (subtype N9) (P03472 whole entry, looked up): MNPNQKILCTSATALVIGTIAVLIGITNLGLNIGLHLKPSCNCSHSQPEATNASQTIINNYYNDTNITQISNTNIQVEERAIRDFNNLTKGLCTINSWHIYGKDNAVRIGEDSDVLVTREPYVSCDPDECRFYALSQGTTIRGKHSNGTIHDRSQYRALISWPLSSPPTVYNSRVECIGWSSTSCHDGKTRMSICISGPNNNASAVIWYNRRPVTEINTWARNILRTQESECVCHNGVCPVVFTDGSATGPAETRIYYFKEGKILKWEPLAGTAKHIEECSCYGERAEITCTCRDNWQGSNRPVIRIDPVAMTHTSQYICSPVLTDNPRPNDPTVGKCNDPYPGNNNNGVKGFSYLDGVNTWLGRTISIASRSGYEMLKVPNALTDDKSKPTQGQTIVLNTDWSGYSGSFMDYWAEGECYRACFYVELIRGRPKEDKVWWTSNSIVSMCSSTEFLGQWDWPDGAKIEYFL

[4] = system: influenza A/Brisbane/10/2007 (H3N2); assay: microbe, parasite or virus in culture; assay type: cell-based, influenza A virus; details: for minimal effective concentration: Influenza A virus, H3N2, MDCK, read-out: Cytoprotective effect
[5] = system: influenza A/Denver/1/57 (H1N1); assay: microbe, parasite or virus in culture; assay type: cell-based, influenza A virus; details: for minimal effective concentration: Influenza A virus, H1N1, MDCK, read-out: Cytoprotective effect
A/Brisbane NML (H3N2) = assay type: cell-based, influenza A virus
A/Denver (H1N1) = assay type: cell-based, influenza A virus
A/New Caledonia (H1N1) = assay type: cell-based, influenza A virus
[6] = system: influenza B/HongKong/5/72; assay: microbe, parasite or virus in culture; assay type: cell-based, influenza B virus; details: for minimal effective concentration: Influenza B virus, MDCK, read-out: Cytoprotective effect
[7] = system: influenza B/Florida/04/06; assay type: cell-based; details: for Relative activity: relative to Zanamivir
[8] = system: influenza A virus, A/HK/1/68 (H3N2); set-up: species or system Balb/C mice (Mus musculus); details: mouse, in vivo
MDCK cells = details: dog
[9] = 1 mg/kg; for % weight loss mean +/− SD: mouse, in vivo; for number of animals remaining: n = 5
[10] = Balb/C, mouse, in vivo, 1 mg/kg
in vivo = details: Balb/C, mouse, 1 mg/kg; for half-life: T1/2
[11] = system: Sol Isl sH1N1 wt (A/Solomon Islands/3/2006); assay: microbe, parasite or virus in culture; assay type: cell-based, influenza A virus; details: read-out: IC50 Sol Isl sH1N1 wt

Compound	IC50 (Fukui H3N2 wt) [µM]	IC50 (sH1N1/01 wt) [µM]	Kd ([3]; 30° C., pH 7.6) [µM]	ki/Kd ([3]; pH 7.6) [min⁻¹ mM⁻¹]	half time for the full inactivation of the sialidase [3]	Cytoprotective effect [4] [ng/mL]	minimal effective concentration [4] [µg/mL]	minimal effective concentration [5] [µg/mL]	minimal effective concentration [6] [µg/mL]	Cytoprotective effect ([7]; Replicate 2) [ng/mL]	Toxicity (MDCK cells) [µg/mL]	Relative activity [4]	Relative activity [5]	Relative activity [6]	Relative toxicity (MDCK cells)	further results
CC(=O)NC1C(NC(=N)N)C(F)C(F)(C(=O)O)OC1[C@H](O)[C@H](O)CO (stereo partly drawn) [4-G3Feq diF SA, 5-Acetamido-2,4,5-trideoxy-2α, 3β-difluoro-4-guanidino-α-D-erythro-L-gluco-nonulopyranosonate]	24.9	0.0126	–	–	–	–	–	–	–	–	–	–	–	–	–	IC50 [1]: 0.002 µM; IC50 [2]: 0.004 µM; IC50 (sH1N1/08 wt): 0.0068 µM; IC50 (B/Perth wt): 0.0045 µM; Half life for reactivation (H1N1 OsR): 9 h; ki (H1N1 OsR): 1.5 ± 0.16 min⁻¹
CC(=O)N[C@@H]1C(NCc2ccccc2)C(F)[C@](F)(C(=O)O)OC1[C@H](O)[C@H](O)CO (stereo partly drawn) [C4 Bn]	–	–	306	0.61	–	–	–	–	–	–	–	–	–	–	–	Ki ([3]; 30° C., pH 7.6): 4.08 µM; khyd ([3]; 30° C., pH 7.6): 0.0025 min⁻¹
CC(=O)N[C@@H]1[C@@H](N)[C@@H](F)[C@](F)(C(=O)O)O[C@H]1[C@H](O)[C@H](O)CO [Compound 4, (2R,3R)-4-Amino-2,4-dideoxy-2,3-difluorosialic acid]	–	–	4	–	ca. 10 min	9.2	0.0069	0.888	1.78	1074	3.6	–	–	–	–	half time for the full reactivation of the inactivated sialidase [3]: 4.8 h; Ki ([3]; 30° C., pH 7.6): 0.093 µM and 0.0932 µM; khyd ([3]; 30° C., pH 7.6): 0.0024 min⁻¹; concentration of antiviral at which a confluent monolayer of MDCK cells was protected (A/Brisbane NML (H3N2)): 51.415^B μM; concentration of antiviral at which a confluent monolayer of MDCK cells was protected (A/Denver (H1N1)): <12.854^A μM; concentration of antiviral at which a confluent monolayer of MDCK cells was protected (A/New Caledonia (H1N1)): <12.854^A μM; Cytoprotective effect ([7]; Replicate 1): 947 ng/mL; survival compared to the untreated control group [8]: somewhat extend survival; % weight loss mean +/− SD ([8]; 1 mg/kg): 16.02 +/− 2.07%; % weight loss mean +/− SD [9]: 2.68 +/− 1.76%; number of animals remaining [9]: 5
CCOC(=O)[C@]1(F)OC([C@H](O)[C@H](O)CO)[C@H](NC(C)=O)C(N)C1F (stereo partly drawn) [Compound 5, Ethyl (2R,3R)-4-Amino-2,4-dideoxy-2,3-difluorosialylate]	–	–	–	–	–	–	0.0076	0.488	0.977	290	125.0	36.4 and 48.6	0.009	2.27	4.5	Cytoprotective effect ([7]; Replicate 1): 290 ng/mL; Relative activity ([7]; Replicate 1): 7.7; Relative activity ([7]; Replicate 2): 3.1
CCNC1C(F)[C@](F)(C(=O)O)OC([C@H](O)[C@H](O)CO)[C@@H]1NC(C)=O (stereo partly drawn) [Compound 7, (2R,3R)-4-(N-Ethyl) amino-2,4-dideoxy-2,3-difluorosialic acid]	–	–	14	4.1	ca. 10 min	61.0	0.122	3.91	3.91	3267	7.8	–	0.001	0.57	72.7	Cytoprotective effect ([7]; Replicate 1): 3267 ng/mL; Relative activity ([7]; Replicate 1): 0.67; Relative activity ([7]; Replicate 2): 0.27
CC(=O)N[C@@H]1C(N=[N+]=[N-])C(F)[C@](F)(C(=O)O)OC1[C@H](O)[C@H](O)CO (stereo partly drawn) [Compound 8, (2R,3R)-4-Azido-2,4-dideoxy-2,3-difluorosialic acid]	–	–	–	–	–	–	0.104	–	–	–	53.4	2.7	–	–	10.6	Kd ([3]; 4° C.): 240 µM; fold lower kinetic value (ki/Kd) than 23DFSA ([3]; 4° C.): 26 fold; ki/Kd ([3]; 4° C.): 7.5 and 7.5^b min^−1mM^−1
CC(=O)N[C@@H]1C(N)C(F)[C@](F)(C(N)=O)OC1[C@H](O)[C@H](O)CO (stereo partly drawn) [Compound 9, (2R,3R)-4-Amino-2,4-dideoxy-2,3-difluorosialylamide]	–	–	1020	0.34	ca. 10 min	–	0.118	3.76	15.1	–	7.5	2.4	0.001	0.15	75.5	–
CC(=O)NC1C(F)[C@](F)(C(=O)O)OC([C@H](O)[C@H](O)CO)[C@@H]1NC(C)=O (stereo partly drawn) [Compound 11, (2R,3R)-4-(N-Acetyl) amino-2,4-dideoxy-2,3-difluorosialic acid]	–	–	397	0.53	ca. 10 min	–	1.6	–	–	–	102.3	0.2	–	–	5.6	–
CC(=O)N[C@@H]1C(NC(=N)N)C(F)[C@](F)(C(=O)O)OC1[C@H](O)[C@H](O)CO (stereo partly drawn) [Compound 12, (2R,3R)-4-Guanyl-2,4-dideoxy-2,3-difluorosialic acid]	2010	0.115	9	–	ca. 10 min	74	–	–	–	–	0.9	–	–	–	–	half time for the full reactivation of the inactivated sialidase [3]: 6.7 h; Ki ([3]; 30° C., pH 7.6): 0.07 µM and 0.0704 µM; khyd ([3]; 30° C., pH 7.6): 0.0017 min⁻¹; survival compared to the untreated control group [8]: significantly extended; % weight loss mean +/− SD ([8]; 1 mg/kg): 10.75 +/− 4.87%; IC50 [1]: 0.0066 µM; IC50 (B/Perth wt): 0.054 µM; Cinitial [10]: 4954 ng/mL; Cinitial ([10]; iv): 9480 ng/mL; % weight loss mean +/− SD [9]: 4.72 +/− 2.78%; number of animals remaining [9]: 5; Half life for reactivation (H1N1 OsR): 116 h; ki (H1N1 OsR): 0.075 ± 0.002 min⁻¹; half-life (in vivo; inhaled or intranasal): 17.3 min; half-life (in vivo; iv): 8.3 min
CCOC(=O)[C@]1(F)OC([C@H](O)[C@H](O)CO)[C@H](NC(C)=O)C(NC(=N)N)C1F (stereo partly drawn) [Compound 13, Ethyl (2R,3R)-4-Guanyl-2,4-dideoxy-2,3-difluorosialylate]	–	–	–	–	–	–	0.0444	0.71	0.71	–	1.4	6.3 and 8.3	0.006	3.13	400.0	–
CC(=O)N[C@@H]1C(O)C(F)[C@](F)(C(=O)O)OC1[C@H](O)[C@H](O)CO (stereo partly drawn) [Compound 23DFSA, 2,3-Difluorosialic acid, reference compound]	–	–	–	–	–	–	–	4.26	34.1	–	–	–	0.001	0.07	–	ki/Kd ([3]; 4° C.): 196 and 196^b min^−1mM^−1
CCOC(=O)C1=C[C@@H](OC(CC)CC)[C@H](NC(C)=O)[C@@H](N)C1 [Oseltamivir]	1.7	0.0031	–	–	–	–	–	–	–	–	–	–	–	–	–	IC50 [1]: 0.0226 µM; IC50 ([11]; Influenza A virus): 0.001 µM; IC50 [2]: 0.0002 µM; IC50 (sH1N1/08 wt): 0.003 µM
CC(=O)N[C@H]1[C@H]([C@H](O)[C@H](O)CO)OC(C(=O)O)=C[C@@H]1N=C(N)N [Zanamivir, reference compound]	3.8	0.0019	–	–	–	369.9	–	–	–	887	568	1.0	1.0	1.0	1.0	Cytoprotective effect [7]: 2219 ng/mL; Relative activity ([7]; Replicate 1): 1.0; Relative activity ([7]; Replicate 2): 1.0; survival compared to the untreated control group [8]: significantly extended; % weight loss mean +/− SD ([8]; 0.1 mg/kg): 16.73 +/− 2.62%; % weight loss mean +/− SD ([8]; 1 mg/kg): 12.24 +/− 2.34%; IC50 [11]: 0.0022 µM; IC50 [2]: 0.0006 µM; IC50 (sH1N1/08 wt): 0.001 µM; AUC(Lung) (Zanamivir/DFSA-4Gu) ([10]; inhaled or intranasal): 1.07; AUC (in vivo; inhaled or intranasal): 4230 ng·h/mL; half-life (in vivo; inhaled or intranasal): 19.1 min
